Literature values in patent publication US6395294B1, “Method of visualization of the vitreous during vitrectomy” (priority 2000, dated 2002).
Read-outs that look alike come from different tables or passages of the source.

Assays:
[1] = intravitreal injections
[2] = intravenous
[3] = rabbit eyes
[4] = intravitreal, experimental
[5] = human eyes
[6] = primate eyes
blood retinal barrier = conditions: intravitreal, experimental

C[C@@H]1C[C@H]2[C@@H]3CCC4=CC(=O)C=C[C@]4(C)[C@@]3(F)[C@@H](O)C[C@]2(C)[C@@]1(O)C(=O)COP(=O)(O)O [dexamethasone sodium phosphate]
retinal toxicity (dose of 2 mg): did not show retinal toxicity

C[C@]12CCC(=O)C=C1CC[C@@H]1[C@@H]2[C@@H](O)C[C@@]2(C)[C@H]1CC[C@]2(O)C(=O)CO [hydrocortisone]
aqueous formation rate and outflow facility compared with saline injection [1]: no difference | intraocular pressure ([1]; both drug and saline groups, because of a decrease in outflow facility): increased intraocular pressure

C[C@H]1C[C@@H]2[C@H]([C@@H](O)C[C@@]3(C)[C@H]2CC[C@]3(O)C(=O)COC(=O)CCC(=O)[O-])[C@@]2(C)C=CC(=O)C=C12.[Na+] [solumedrol, methylprednisolone sodium succinate]
effect on diabetic eyes with rubeosis iridis [2]: quiets diabetic eyes with rubeosis iridis

CC1(C)O[C@@H]2C[C@H]3[C@@H]4CCC5=CC(=O)C=C[C@]5(C)[C@@]4(F)[C@@H](O)C[C@]3(C)[C@]2(C(=O)CO)O1 [triamcinolone, triamcinolone acetonide]
tolerance in the eye [3]: well tolerated | angiogenesis [4]: inhibit angiogenesis | incidence of proliferative vitreoretinopathy and subsequent retinal detachment [4]: reduce the incidence of proliferative vitreoretinopathy and subsequent retinal detachment | preretinal and optic disc neovascularization [4]: inhibit preretinal and optic disc neovascularization | tolerance in the eye [5]: well tolerated | tolerance in the eye [6]: well tolerated | breakdown of the blood retinal barrier (blood retinal barrier): reduce the breakdown of the blood retinal barrier | retinal toxicity (vitrectomized and nonvitrectomized eyes, dosage of 2-4 mg): no retinal toxicity
